{"source": "patent US20230029485A1", "about": "(priority 2021, published 2023)", "origin": "cited, not measured here", "settings_in_all_cases": "in vivo", "key": {"[1]": {"system": "metastatic colorectal cancer"}, "SARS-CoV-2 [2]": {"system": "SARS-CoV-2"}, "SARS-CoV-2 [3]": {"system": "SARS-CoV-2", "remark": "listed apart in the source"}}}
{"smiles": "O=c1[nH]cc(F)c(=O)[nH]1", "note": "[5-fluorouracil]", "values": [{"measurement": "objective response rate", "setting": "[1]", "result": "around 20%"}]}
{"smiles": "CCN(CCO)CCCC(C)Nc1ccnc2cc(Cl)ccc12", "note": "(stereo not shown) [HCQ, hydroxychloroquine]", "values": [{"measurement": "developed QT prolongation", "setting": "SARS-CoV-2 [2]", "result": "nine"}, {"measurement": "good clinical outcome and a virological cure", "setting": "SARS-CoV-2 [2]", "result": 91.7, "unit": "%"}]}
{"smiles": "CCC(CC)COC(=O)[C@H](C)N[P@](=O)(OC[C@H]1O[C@@](C#N)(c2ccc3c(N)ncnn23)[C@H](O)[C@@H]1O)Oc1ccccc1", "note": "[RDV, Remdesivir]", "values": [{"measurement": "adverse events, share of patients", "setting": "SARS-CoV-2 [3]", "result": 60.3, "unit": "%"}]}
